Test results taken from patent US6686484B2, “Polycyclic aryl and heteroaryl substituted 1,4-quinones useful for selective inhibition of the coagulation cascade” (Pharmacia Corporation, priority 2000, dated 2004).

Columns and labels:
Type in all cases: biochemical
[1] = target: T1, trypsin, type IX from porcine pancreas (Sus scrofa, UniProt P00761); experiment: Trypsin Assay; details: substrate L-BAPNA, 60 min room temperature, OD 405 nm; read-out: Trpysin II IC50
T1 construct: purchased Sigma, St. Louis Mo; host or cells: porcine pancreas
Method: 5 ug/ml trypsin, type IX from porcine pancreas and 0.375 mM N-α-Benzoyl-L-arginine-p-nitroanilide (L-BAPNA) are added to a 96-well assay plate containing either inhibitor or buffer (50 mM Tris-HCl, pH 8.0, 100 mM NaCl, 0.1% BSA). The reactions, in a final volume of 100 ul are measured immediately at 405 nm to determine background absorbance. The plate is incubated at room temperature for 60 min, at which time the rate of hydrolysis of the substrate is measured by monitoring the reaction at 405 nm for the release of p-nitroaniline. Percent inhibition of trypsin activity is calculated from OD405nm value from the experimental and control sample.
Recombinant soluble TF, consisting of amino acids 1-219 of the mature protein sequence was expressed in E. coli and purified using a Mono Q Sepharose FPLC. Recombinant human VIIa was purchased from American Diagnostica, Greenwich Conn. and chromogenic substrate N-Methylsulfonyl-D-phe-gly-arg-p-nitroaniline was prepared by American Peptide Company, Inc., Sunnyvale, Calif. Factor Xa was obtained from Enzyme Research Laboratories, South Bend Ind., thrombin from Calbiochem, La Jolla, Calif., and trypsin and L-BAPNA from Sigma, St. Louis Mo. The chromogenic substrates S-2765 and S-2238 were purchased from Chromogenix, Sweden.

[2] = target: T2, recombinant soluble tissue factor and recombinant human factor VIIa (TF-VIIA) (Homo sapiens, UniProt P08709); experiment: TF-VIIa Assay; details: chromogenic substrate N-Methylsulfonyl-D-phe-gly-arg-p-nitroaniline, 60 min room temperature, OD 405 nm
T2 construct: conversion of coagulation factor VII to VIIa by Xa; purchased American Diagnostica, Greenwich Conn; (VIIa); soluble TF made in house in E. coli; host or cells: E. coli (soluble TF)
Method: In this assay 100 nM recombinant soluble tissue factor and 2 nM recombinant human factor VIIa are added to a 96 well assay plate containing 0.4 mM of the substrate, N-Methylsulfonyl-D-phe-gly-arg-p-nitroaniline and either inhibitor or buffer (5 mM CaCl2, 50 mM Tris-HCl, pH 8.0, 100 mM NaCl, 0.1% BSA). The reaction, in a final volume of 100 ul is measured immediately at 405 nm to determine background absorbance. The plate is incubated at room temperature for 60 min, at which time the rate of hydrolysis of the substrate is measured by monitoring the reaction at 405 nm for the release of p-nitroaniline. Percent inhibition of TF-VIIa activity is calculated from OD405nm value from the experimental and control sample.

human thrombin = human thrombin (Homo sapiens, UniProt P00734); experiment: Thrombin Assay; details: substrate H-D-Phenylalanyl-L-pipecolyl-L-arginine-p-nitroaniline, 60 min room temperature, OD 405 nm; read-out: Thrombin II IC50
Method: 0.28 nM human thrombin and 0.06 mM H-D-Phenylalanyl-L-pipecolyl-L-arginine-p-nitroaniline dihydrochloride are added to a 96-well assay plate containing either inhibitor or buffer (50 mM Tris-HCl, pH 8.0, 100 mM NaCl, 0.1% BSA). The reaction, in a final volume of 100 ul is measured immediately at 405 nm to determine background absorbance. The plate is incubated at room temperature for 60 min, at which time the rate of hydrolysis of the substrate is measured by monitoring the reaction at 405 nm for the release of p-nitroaniline. Percent inhibition of thrombin activity is calculated from OD405nm value from the experimental and control sample.

T1 sequence (P00761 9-231): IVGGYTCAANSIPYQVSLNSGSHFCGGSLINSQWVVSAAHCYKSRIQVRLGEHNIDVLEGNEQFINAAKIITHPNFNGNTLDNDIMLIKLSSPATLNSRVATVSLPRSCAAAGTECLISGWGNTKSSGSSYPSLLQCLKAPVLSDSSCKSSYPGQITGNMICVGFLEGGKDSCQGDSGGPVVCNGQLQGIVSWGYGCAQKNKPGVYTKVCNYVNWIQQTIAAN
T2 sequence (P08709 213-466 limits assumed): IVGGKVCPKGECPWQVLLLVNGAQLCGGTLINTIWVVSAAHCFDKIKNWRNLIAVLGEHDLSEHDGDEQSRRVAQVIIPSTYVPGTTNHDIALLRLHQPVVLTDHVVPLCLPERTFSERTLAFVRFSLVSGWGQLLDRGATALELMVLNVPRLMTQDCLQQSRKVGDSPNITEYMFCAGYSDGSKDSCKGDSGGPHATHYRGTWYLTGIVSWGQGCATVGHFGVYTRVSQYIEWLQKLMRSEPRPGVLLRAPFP
T2 sequence (P08709 61-212 limits assumed): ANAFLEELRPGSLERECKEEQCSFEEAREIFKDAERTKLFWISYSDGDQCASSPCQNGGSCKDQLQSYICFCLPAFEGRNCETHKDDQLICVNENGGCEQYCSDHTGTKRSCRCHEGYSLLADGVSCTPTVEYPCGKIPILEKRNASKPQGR
T2 sequence (P13726 33-251 partner limits assumed): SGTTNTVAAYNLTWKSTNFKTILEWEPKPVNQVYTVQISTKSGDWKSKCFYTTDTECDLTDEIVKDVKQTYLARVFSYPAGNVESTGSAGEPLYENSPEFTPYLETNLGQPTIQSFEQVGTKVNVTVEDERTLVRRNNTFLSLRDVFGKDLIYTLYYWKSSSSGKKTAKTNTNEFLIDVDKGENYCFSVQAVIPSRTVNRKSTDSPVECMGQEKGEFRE

| Compound | IC50 [1] | IC50 [2] | IC50 (human thrombin) |
| --- | --- | --- | --- |
| CC(C)NC1=CC(=O)C(c2ccccc2)=C(CC(=O)NCc2ccc(C(=N)N)cc2)C1=O [Example 1] | 110 nM |  |  |
| N=C(N)c1ccc(CNC(=O)CC2=C(c3ccccc3)C(=O)C=C(NCCc3ccccc3)C2=O)cc1 [Example 2] | 740 nM | 1300 nM | 960 nM |
